PMC9124818 (Pharmacology Research & Perspectives, 2022)
Read-outs that look alike come from different tables or passages of the source.

Tests used:
CYP1A2 mRNA = test: CYP450 induction in cultured human hepatocytes, mRNA by qRT-PCR; format: cell-based; details: for Fold‐change method: Fold change: highest dose tested (40 µM fenfluramine, 50 µM norfenfluramine); for Fold‐change method: % of control: percent of positive control induction of mRNA
Procedure: Each PCR was performed in triplicate.

OAT3 = target: T1, OAT3 (Homo sapiens, UniProt Q8TCC7); test: Transporter inhibition, uptake of [3H]-estrone-3-sulfate in HEK293 cells; format: in vitro ADME
T1 construct: host or cells: HEK293
T1 sequence (Q8TCC7 1-542): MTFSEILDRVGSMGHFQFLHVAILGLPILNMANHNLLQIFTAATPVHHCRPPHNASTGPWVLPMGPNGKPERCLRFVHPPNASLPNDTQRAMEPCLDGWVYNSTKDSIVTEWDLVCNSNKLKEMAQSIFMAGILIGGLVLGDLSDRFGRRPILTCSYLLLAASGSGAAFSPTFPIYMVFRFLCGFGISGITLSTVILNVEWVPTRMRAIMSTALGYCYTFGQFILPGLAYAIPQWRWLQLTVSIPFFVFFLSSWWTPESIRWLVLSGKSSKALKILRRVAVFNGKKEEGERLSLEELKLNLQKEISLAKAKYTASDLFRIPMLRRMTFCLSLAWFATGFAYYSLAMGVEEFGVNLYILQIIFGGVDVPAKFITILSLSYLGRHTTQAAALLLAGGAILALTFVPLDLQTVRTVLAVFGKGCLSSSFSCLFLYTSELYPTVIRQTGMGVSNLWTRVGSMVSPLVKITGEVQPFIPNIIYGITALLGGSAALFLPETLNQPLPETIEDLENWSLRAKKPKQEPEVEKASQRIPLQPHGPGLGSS
Procedure: (§1) The test compound (FFA or nFFA) or the positive control substrate ([…], respectively) was added to the donor chamber. […] Cells were then washed, lysed with scintillation cocktail, and analyzed for the probe substrate with a MicroBeta scintillation counter (PerkinElmer, Hopkinton, MA). Transcellular transporter assay conditions are described in Supplemental Table 1. Calculation of IC50 values was based on bidirectional permeability of probe substrate with and without the inhibitor in MDCKII cells expressing BCRP and in Caco‐2 cells expressing P‐gp, and transporter‐dependent uptake of probe substrate in HEK293 cells expressing all other transporters (Supplemental Table 1).
(§2) The transporter-specific uptake of the probe substrate in cells was determined by subtracting the accumulation in the control cells from the accumulation in the transporter-expressing cells.

CYP450 enzymes = test: Time- and metabolism-dependent CYP450 inhibition in human liver microsomes; format: in vitro ADME; details: compared to direct inhibition
CYP2B6 = target: T2, CYP2B6 (Homo sapiens, UniProt P20813); test: Direct CYP450 inhibition in human liver microsomes (efavirenz 8-hydroxylation); details: for Inhibition (%): FFA up to 60 µM, nFFA up to 100 µM; for Basic model: R1: R1 = 1 + (Imax,u/Ki,u)
T2 sequence (P20813 1-491): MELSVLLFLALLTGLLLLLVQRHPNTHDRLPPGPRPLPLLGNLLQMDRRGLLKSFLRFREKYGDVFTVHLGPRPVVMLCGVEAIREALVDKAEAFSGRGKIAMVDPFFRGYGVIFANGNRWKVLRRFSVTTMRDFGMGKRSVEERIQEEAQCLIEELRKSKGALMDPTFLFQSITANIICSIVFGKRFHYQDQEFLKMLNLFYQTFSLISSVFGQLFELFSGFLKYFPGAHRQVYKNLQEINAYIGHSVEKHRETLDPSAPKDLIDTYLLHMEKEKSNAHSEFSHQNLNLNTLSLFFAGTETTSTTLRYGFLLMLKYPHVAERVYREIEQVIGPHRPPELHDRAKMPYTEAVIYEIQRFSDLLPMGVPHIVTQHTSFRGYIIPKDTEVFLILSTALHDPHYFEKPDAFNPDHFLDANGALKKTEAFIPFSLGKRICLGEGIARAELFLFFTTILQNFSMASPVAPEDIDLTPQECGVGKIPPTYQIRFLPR
Source text: (§3) A mixed‐gender pool of 200 individual human liver microsomal samples was used.
(§4) This LIMS utilizes the Levenberg-Marquardt algorithm to perform nonlinear regression fitting of the data to the following 4-parameter sigmoidal-logistic IC50 equation:
(§5) As percent of control values are utilized, the Min is set to 0 and the Max is set to 100 (or other values, as appropriate). […] Therefore, when an IC50 value falls outside the concentration range studied, the IC50 values are reported to be greater than the highest concentrations of test article evaluated.

CYP3A4/5 = test: Direct CYP450 inhibition in human liver microsomes (midazolam 1'-hydroxylation; testosterone 6β-hydroxylation); details: for Basic model: R1,gut: R1,gut = 1 + (Igut/Ki,u); for Basic model: R1: R1 = 1 + (Imax,u/Ki,u)
Source text: as §3, §4, §5

OAT1 = target: T3, OAT1 (Homo sapiens, UniProt Q4U2R8); test: Transporter inhibition, uptake of [3H]-p-aminohippurate in HEK293 cells; format: in vitro ADME
T3 construct: host or cells: HEK293
T3 sequence (Q4U2R8 1-563): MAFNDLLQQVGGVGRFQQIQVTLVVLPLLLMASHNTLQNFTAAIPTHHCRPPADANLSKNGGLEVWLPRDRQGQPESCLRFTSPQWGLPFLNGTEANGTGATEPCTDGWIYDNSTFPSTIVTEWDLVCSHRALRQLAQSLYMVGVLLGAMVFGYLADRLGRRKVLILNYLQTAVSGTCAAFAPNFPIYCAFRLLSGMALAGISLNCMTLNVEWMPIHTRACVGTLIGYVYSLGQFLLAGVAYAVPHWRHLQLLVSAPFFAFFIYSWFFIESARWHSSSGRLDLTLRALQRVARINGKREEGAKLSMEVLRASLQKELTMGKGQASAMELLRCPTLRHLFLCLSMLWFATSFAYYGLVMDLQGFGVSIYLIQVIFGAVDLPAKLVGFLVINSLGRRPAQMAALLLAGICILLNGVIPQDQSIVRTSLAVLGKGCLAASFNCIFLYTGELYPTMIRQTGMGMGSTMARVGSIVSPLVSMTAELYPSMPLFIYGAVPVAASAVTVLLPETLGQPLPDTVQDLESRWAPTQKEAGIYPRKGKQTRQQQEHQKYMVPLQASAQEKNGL
Procedure: as §1, §2

CYP2C9 = CYP2C9 (Homo sapiens, UniProt P11712); test: Direct CYP450 inhibition in human liver microsomes (diclofenac 4'-hydroxylation)
Chain of CYP2C9 (P11712 whole entry): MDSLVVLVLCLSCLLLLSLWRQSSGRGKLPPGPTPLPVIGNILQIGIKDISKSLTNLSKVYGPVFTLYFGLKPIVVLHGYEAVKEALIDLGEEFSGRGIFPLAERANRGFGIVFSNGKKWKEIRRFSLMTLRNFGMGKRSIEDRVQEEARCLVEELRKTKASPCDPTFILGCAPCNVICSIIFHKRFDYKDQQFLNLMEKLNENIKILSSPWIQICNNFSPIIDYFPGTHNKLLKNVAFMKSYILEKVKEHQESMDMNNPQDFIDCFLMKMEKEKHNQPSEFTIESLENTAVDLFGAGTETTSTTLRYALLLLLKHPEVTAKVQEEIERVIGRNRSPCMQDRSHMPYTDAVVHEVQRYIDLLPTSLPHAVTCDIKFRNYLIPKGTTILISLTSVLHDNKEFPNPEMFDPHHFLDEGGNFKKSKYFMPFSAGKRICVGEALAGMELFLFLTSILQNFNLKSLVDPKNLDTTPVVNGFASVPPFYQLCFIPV
Source text: as §3, §4, §5

[1] = all three hepatocyte cultures, FFA up to 40 μM, nFFA 50 μM
[2] = direct inhibition, substrate efavirenz

For `CCNC(C)Cc1cccc(C(F)(F)F)c1` (racemic) [FFA, (RS)‐ethyl(α‐methyl‐3‐trifluoromethylphenethyl)amine, reference compound], the “% as effective as the positive control, omeprazole (CYP1A2 mRNA)” value (CYP1A2 mRNA; [1]) was less than 20%, the IC50 (OAT3) was greater than 30 µM and the “time- or metabolism-dependent inhibition of CYP450 enzyme activity” value (CYP450 enzymes) was “did not have any additional inhibitory effects”. The IC50 (CYP2B6) was greater than 60 µM, the “Inhibition (%)” value (CYP2B6; [2]) was 6.1% and the “Basic model: Potential for clinical inhibition” value (CYP2B6; substrate efavirenz) was “No (Potential to inhibit if R1 ≥ 1.02)”. The “Static mechanistic model: Potential for clinical inhibition” value (CYP2B6; substrate efavirenz) was “No (Potential to inhibit if AUCR ≥ 1.25)”, the “Basic model: R1” value (CYP2B6; substrate efavirenz) was 1.01 and the IC50 (CYP3A4/5; both, human, pooled human liver microsomes, pH 7.4, probe midazolam (1'-hydroxylation)) was greater than 600 µM. For the same compound, the IC50 (CYP3A4/5; both, human, pooled human liver microsomes, pH 7.4, probe testosterone (6β-hydroxylation)) was greater than 600 µM, the “Basic model: Potential for clinical inhibition (R1)” value (CYP3A4/5; substrate midazolam) was “No No ^b (Potential to inhibit if R1 ≥ 1.02)” and the “Basic model: Potential for clinical inhibition (R1,gut)” value (CYP3A4/5; substrate midazolam) was “No No ^b (Potential to inhibit if R1,gut ≥ 11)”. For the same compound, the “Static mechanistic model: Potential for clinical inhibition” value (CYP3A4/5; substrate midazolam) was “No (Potential to inhibit if AUCR ≥ 1.25)”, the “Basic model: R1,gut” value (CYP3A4/5; substrate midazolam) was “NC R1,gut = 1.78” and the “Basic model: Potential for clinical inhibition (R1)” value (CYP3A4/5; substrate testosterone) was “No No ^b (Potential to inhibit if R1 ≥ 1.02)”. The “Basic model: Potential for clinical inhibition (R1,gut)” value (CYP3A4/5; substrate testosterone) was “No No ^b (Potential to inhibit if R1,gut ≥ 11)”, the “Static mechanistic model: Potential for clinical inhibition” value (CYP3A4/5; substrate testosterone) was “No (Potential to inhibit if AUCR ≥ 1.25)” and the “Basic model: R1,gut” value (CYP3A4/5; substrate testosterone) was 1.81. The “Basic model: R1” value (CYP3A4/5; substrate testosterone) was 1.00, the IC50 (OAT1) was greater than 30 µM and the IC50 (CYP2C9) was greater than 60 µM. The “Inhibition (%)” value (CYP2C9; direct inhibition, substrate diclofenac, FFA up to 60 µM, nFFA up to 100 µM) was 2.4%, the “Basic model: Potential for clinical inhibition” value (CYP2C9; substrate diclofenac) was “No (Potential to inhibit if R1 ≥ 1.02)” and the “Static mechanistic model: Potential for clinical inhibition” value (CYP2C9; substrate diclofenac) was “No (Potential to inhibit if AUCR ≥ 1.25)”. For the same compound, the “Basic model: R1” value (CYP2C9; substrate diclofenac, R1 = 1 + (Imax,u/Ki,u)) was 1.01.

In the case of `CC(N)Cc1cccc(C(F)(F)F)c1.Cl` (stereo not drawn) [nFFA, [1‐(3‐trifluoromethyl)phenyl]propan‐2‐amine hydrochloride], the “% as effective as the positive control, omeprazole (CYP1A2 mRNA)” value (CYP1A2 mRNA; [1]) is reported as less than 20%, the “fold change in CYP1A2 mRNA levels” value (CYP1A2 mRNA; [1]) is reported as less than 2 fold and the “Fold‐change method: Potential to induce” value (CYP1A2 mRNA; hepatocytes HC7‐8) is reported as “No”. The “Fold‐change method: Fold change” value (CYP1A2 mRNA; hepatocytes HC7‐8) was 1.74 fold, the “Fold‐change method: % of control” value (CYP1A2 mRNA; hepatocytes HC7‐8) was 2.35% and the “Fold‐change method: Potential to induce” value (CYP1A2 mRNA; hepatocytes HC10‐8) was “No”. The “Fold‐change method: Fold change” value (CYP1A2 mRNA; hepatocytes HC10‐8) was 1.92 fold, the “Fold‐change method: % of control” value (CYP1A2 mRNA; hepatocytes HC10‐8) was 1.79% and the “Fold‐change method: Potential to induce” value (CYP1A2 mRNA; hepatocytes HC10‐10) was “No”. For the same compound, the “Fold‐change method: Fold change” value (CYP1A2 mRNA; hepatocytes HC10‐10) was 1.86 fold, the “Fold‐change method: % of control” value (CYP1A2 mRNA; hepatocytes HC10‐10) was 1.96% and the IC50 (OAT3; HEK293, probe [3H]-estrone-3-sulfate 50 nM, read-out: IC50) was greater than 50 µM. The “time- or metabolism-dependent inhibition of CYP450 enzyme activity” value (CYP450 enzymes) was “did not have any additional inhibitory effects”, the IC50 (CYP2B6; direct inhibition, human liver microsomes, substrate efavirenz) was greater than 100 µM and the “Inhibition (%)” value (CYP2B6; [2]) was 23%. For the same compound, the “Basic model: Potential for clinical inhibition” value (CYP2B6; substrate efavirenz) was “No (Potential to inhibit if R1 ≥ 1.02)”, the “Static mechanistic model: Potential for clinical inhibition” value (CYP2B6; substrate efavirenz) was “No (Potential to inhibit if AUCR ≥ 1.25)” and the “Basic model: R1” value (CYP2B6; substrate efavirenz) was 1.00. For the same compound, the IC50 (CYP3A4/5; direct inhibition, human liver microsomes, substrate midazolam) was greater than 100 µM, the IC50 (CYP3A4/5; direct inhibition, human liver microsomes, substrate testosterone) was greater than 100 µM and the “Basic model: Potential for clinical inhibition (R1)” value (CYP3A4/5; substrate midazolam) was “No (Potential to inhibit if R1 ≥ 1.02)”. For the same compound, the “Static mechanistic model: Potential for clinical inhibition” value (CYP3A4/5; substrate midazolam) was “No (Potential to inhibit if AUCR ≥ 1.25)”, the “Basic model: Potential for clinical inhibition (R1)” value (CYP3A4/5; substrate testosterone) was “No (Potential to inhibit if R1 ≥ 1.02)” and the “Static mechanistic model: Potential for clinical inhibition” value (CYP3A4/5; substrate testosterone) was “No (Potential to inhibit if AUCR ≥ 1.25)”. For the same compound, the “Basic model: R1” value (CYP3A4/5; substrate testosterone) was 1.00, the IC50 (OAT1; HEK293, probe [3H]-p-aminohippurate 1 μM, read-out: IC50) was greater than 50 µM and the IC50 (CYP2C9; direct inhibition, human liver microsomes, substrate diclofenac) was greater than 100 µM. For the same compound, the “Basic model: Potential for clinical inhibition” value (CYP2C9; substrate diclofenac) was “No (Potential to inhibit if R1 ≥ 1.02)” and the “Static mechanistic model: Potential for clinical inhibition” value (CYP2C9; substrate diclofenac) was “No (Potential to inhibit if AUCR ≥ 1.25)”.
